Assay results taken from patent US5565330A, “Method for removing N-terminal dipeptides from precursor polypeptides with dipeptidylaminopeptidase from Dictyostelium discoideum” (Eli Lilly and Company, priority 1995, dated 1996).

Columns and labels:
[1] = tested on: Met(O)-Arg-hPI; assay: Conversion of oxidized methionyl Met(O)-Arg-hPI (HPLC); assay type: biochemical, human; settings: X is Arg, Phe and Tyr
Procedure: Met-Arg-Human Proinsulin (Met-Arg-hPI) was produced as an insoluble protein in the cytoplasm of E. coli. The insoluble protein was solubilized in 7M urea. The protein was purified by ion exchange chromatography. The Met-Arg-hPI was sulfitolyzed, solvent exchanged and folded in order to form the native disulfide bond pairs and native tertiary structure. The material was further purified using reverse phase chromatography.
The Met-Arg-hPI was about 24 mg/ml (in approximately 20 mM glycine buffer, pH 3.5). About 2.4 mg of this material was incubated with 0.19 milliunits of dDAP at pH 3.5. The reaction was allowed to proceed at room temperature. Periodically, aliquots were removed and diluted with 10% phosphoric acid. This material was injected onto a neutral reverse phase HPLC system to monitor for the disappearance of Met-Arg-hPI or Met(O)-Arg-hPI and the subsequent production of hPI. In addition, aliquots were diluted into an appropriate diluent to allow for HPLC monitoring of appearance of either the Met-Arg or Met(O)-Arg dipeptides. Approximately 60% of the Met-Arg-hPI was converted to hPI in 8 hours. […] The rate of cleavage of both substrates was similar. […] The ability of dDAP to cleave the oxidized Met(O)-X substrate has distinct processing advantages over enzymes unable to perform this cleavage.

[2] = Cleavage of blocked Benzyloxycarbonyl-RR-BNA (fluorescence); assay type: biochemical; settings: 0.25 mM Z-RR-BNA, pH 3.5 or pH 5.0
Procedure: (§1) About 0.25 mM RR-BNA or 0.25 mM Benzyloxycarbonyl-RR-BNA (Z-RR-BNA) was prepared in either 100 mM acetic acid, pH 3.5, or 100 mM citrate buffer, pH 5.0. To 2 ml of substrate was added dDAP or bovine DAP-I (about 15 milliunit/ml solution). Rates of cleavage (monitoring fluorescence increase at 410 nm with excitation at 340 nm) were monitored. […] The pH optimum for cleavage of RR-BNA was probed by monitoring the rate of RR-BNA cleavage using a buffer system consisting of 50 mM acetic acid and 50 mM citrate. Various pHs were achieved using HCl or NaOH and 1.5 ml volumes were made 2.0 with 0.5 ml of a 1 mM stock solution of RR-BNA (final concentration of about 0.25 mM). dDAP was added (to about 15 mU/ml) and the rates of cleavage were determined.

[3] = Cleavage of Arg-Arg-β-naphthylamide (fluorescence); assay type: biochemical; settings: 0.25 mM RR-BNA, pH 3.5 or pH 5.0, about 15 milliunit/ml enzyme
Procedure: as §1

[4] = target: T1, bovine spleen DAP-I (Bos taurus, UniProt Q3ZCJ8); assay: Inhibition of GFpNA cleavage by sulfhydryl modifying agents; assay type: biochemical; settings: 5 mM inhibitor, 15 minutes at room temperature, pH 7; then 4 mM GFpNA, pH 3.5, 37 degrees; read-out: decrease (inhibition) of bovine DAP-I's rate of cleavage of GFpNA
T1 construct: bovine spleen DAP-I; from tissue; host or cells: bovine spleen
T1 sequence (Q3ZCJ8 231-394 limits assumed): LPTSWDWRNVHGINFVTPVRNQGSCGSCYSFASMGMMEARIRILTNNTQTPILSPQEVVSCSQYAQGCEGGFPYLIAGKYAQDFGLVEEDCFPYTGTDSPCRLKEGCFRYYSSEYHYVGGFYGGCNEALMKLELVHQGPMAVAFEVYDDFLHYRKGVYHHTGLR
T1 sequence (Q3ZCJ8 395-463 limits assumed): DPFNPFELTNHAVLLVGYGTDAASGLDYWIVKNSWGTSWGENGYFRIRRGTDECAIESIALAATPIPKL
T1 sequence (Q3ZCJ8 25-143 limits assumed): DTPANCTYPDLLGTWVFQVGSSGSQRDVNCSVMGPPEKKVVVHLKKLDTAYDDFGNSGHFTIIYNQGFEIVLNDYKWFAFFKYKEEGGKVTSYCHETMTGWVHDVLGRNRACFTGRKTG
Procedure: (§2) dDAP activity is normally monitored by following the cleavage of the chromogenic substrate Gly-Phe para-nitroanilide (GF-pNA). Typically the assay is performed by diluting the enzyme 11 fold into 1.0 ml of 4 mM GFpNA adjusted to pH 3.5. The rate of cleavage of GF dipeptide was monitored at 37° C. by measuring the increase in absorbance at 405 nm. One unit of activity leads to a 0.90 OD change per minute under these conditions. Unit/ml estimates can be made assuming an extinction coefficient for free pNA of 9.9 mM-1 cm-1 at 405 nm.
(§3) The inhibition profile of dDAP toward the substrate GFpNA was compared to that of bovine DAP-I using iodoacetamide and potassium tetrathionate, sulfhydryl modifying agents known to inhibit the activity of DAP-I. Samples of dDAP or bovine spleen DAP-I were incubated for 15 minutes at room temperature in final concentrations of 0, 0.5, 5.0 or 50 mM of either inhibitor at pH 7 in 100 mM Tris buffer. The incubated solutions were then diluted 21-fold with 4 mM GFpNA, pH 3.5. The rate of cleavage was monitored by measuring the increase in absorbance at 405 nm at 37 degrees centigrade. Bovine DAP-I's rate of cleavage of GFpNA was decreased more than 90% by the exposure to 5 mM iodoacetamide and was 95% inhibited by 5 mM potassium tetrathionate.

[5] = tested on: dDAP; assay: as above; assay type: biochemical, Dictyostelium discoideum; settings: 0.5, 5.0 or 50 mM inhibitor, 15 minutes at room temperature, pH 7; then 4 mM GFpNA, pH 3.5
Procedure: as §2, §3

Row | Compound | cleavage of Met(O)-X-derivatives of hPI [1] | cleavage of blocked amino group Z-RR-BNA [2] | cleavage of RR-BNA [3] | inhibition at 5000 µM [4] [%] | inhibition of dDAP cleavage of GFpNA [5]
1 | bovine DAP-I: bovine spleen dipeptidylaminopeptidase I, comparison enzyme | unable to cleave | unable to cleave | unable to cleave | – | –
2 | O=S(=O)([O-])SSS(=O)(=O)[O-].[K+].[K+] [potassium tetrathionate] | – | – | – | 95 | no evidence of significant inhibition
3 | NC(=O)CI [iodoacetamide] | – | – | – | > 90 | no evidence of significant inhibition
